Data reported in patent publication US10781206B2, “Tetrahydropyrazolopyridine compounds for the treatment of infectious diseases” (Hoffmann-La Roche Inc., priority 2017, dated 2020).

System: HBV
Assay: HBV inhibition assay in HepG2.2.15 cells (extracellular HBV DNA by qPCR)
Format: cell-based
Conditions: Hepatitis B virus, 120 h, extracellular HBV DNA in culture supernatant by qPCR, five days after compound treatment
Description: Example 19: HBV Inhibition Assays
Cell Line and Culture Conditions:
HepG2.2.15 is a stably-transfected cell line containing the HBV genome. It is derived from the hepatoblastoma cell line Hep G2 (American Type Culture Collection, ATCC® HB-8065™) by the published procedures described in reference: MA Selles et al. Proc. Natl. Acad. Sci. USA 1987, 84, 1005-1009. The cell line was maintained in Dulbecco's modified Eagle's medium and nutrient mixture F-12 (DMEM/F-12, Gibco, Cat. #: 11320-033) supplemented with 10% fetal bovine serum (Gibco, Cat. #: 10099-141), 100 U/mL penicillin, 100 μg/mL streptomycin (Gibco, Cat. #: 15140-122), and 0.3 mg/mL of G418 Sulfate (Gibco, Cat. #: 10131-027).
Anti-HBV Activity In Vitro:
HepG2.2.15 cells were seeded into 96-well plates at a density of 3×10^4 cells per well in culture media of 100 μL DMEM/F-12 supplemented with 2.5% fetal bovine serum, 100 U/mL penicillin, 100 μg/mL streptomycin and cultured overnight at 37° C. The test compounds were serially half-log diluted in DMSO, then diluted 100 times in culture media. 100 μL culture media containing diluted compounds were added into the plates to reach 0.5% final concentration of DMSO in every well. Five days after compound treatment, culture supernatant was collected for further analysis.
For quantitative PCR detection of extracellular HBV DNA, culture supernatant was processed by 500 μg/mL Proteinase K (Sigma, Cat. #: P2308) digestion at 50° C. for 1 hour. After heat inactivation of the enzyme at 95° C. for 15 minutes, the samples were subjected to HBV DNA quantification by qPCR. The effective compound concentration at which HBV replication was inhibited by 50% (EC50) was determined.

SMILES | EC50
O=C(Nc1cc(F)c(F)c(F)c1)C1CCn2ncc(N3CCOCC3=O)c2C1 (centres unmarked) [Example 9, 3-(3-oxomorpholin-4-yl)-N-(3,4,5-trifluorophenyl)-4,5,6,7-tetrahydropyrazolo[1,5-a]pyridine-5-carboxamide] | 840 nM
N#CC1CC(=O)N(c2cnn3c2CC(C(=O)Nc2cc(F)c(F)c(F)c2)CC3)C1 (centres unmarked) [Example 8, 3-(4-cyano-2-oxo-pyrrolidin-1-yl)-N-(3,4,5-trifluorophenyl)-4,5,6,7-tetrahydropyrazolo[1,5-a]pyridine-5-carboxamide] | 190 nM
O=C(Nc1cc(F)c(F)c(F)c1)C1CCn2ncc(N3CCCC3=O)c2C1 (centres unmarked) [Example 1, 3-(2-oxopyrrolidin-1-yl)-N-(3,4,5-trifluorophenyl)-4,5,6,7-tetrahydropyrazolo[1,5-a]pyridine-5-carboxamide] | 370 nM
CC1(C)CN(c2cnn3c2CC(C(=O)Nc2cc(F)c(F)c(F)c2)CC3)C(=O)O1 (centres unmarked) [Example 2, 3-(5,5-dimethyl-2-oxo-oxazolidin-3-yl)-N-(3,4,5-trifluorophenyl)-4,5,6,7-tetrahydropyrazolo[1,5-a]pyridine-5-carboxamide] | 300 nM
O=C(Nc1cc(F)c(F)c(F)c1)C1CCn2ncc(N3CCNS3(=O)=O)c2C1 (centres unmarked) [Example 7, 3-(1,1-dioxo-1,2,5-thiadiazolidin-2-yl)-N-(3,4,5-trifluorophenyl)-4,5,6,7-tetrahydropyrazolo[1,5-a]pyridine-5-carboxamide] | 110 nM
Cc1cc(NC(=O)C2CCn3ncc(-c4ccc(F)cc4F)c3C2)ccc1F (centres unmarked) [Example 14, 3-(2,4-difluorophenyl)-N-(4-fluoro-3-methyl-phenyl)-4,5,7-tetrahydropyrazolo[1,5-a]pyridine-5-carboxamide] | 89 nM
O=C(Nc1ccc(F)c(C(F)(F)F)c1)C1CCn2ncc(-c3ccc(F)cc3F)c2C1 (centres unmarked) [Example 12, 3-(2,4-difluorophenyl)-N-[4-fluoro-3-(trifluoromethyl)phenyl]-4,5,6,7-tetrahydropyrazolo[1,5-a]pyridine-5-carboxamide] | 870 nM
O=C(Nc1ccsc1)C1CCn2ncc(-c3ccc(F)cc3F)c2C1 (centres unmarked) [Example 11, 3-(2,4-difluorophenyl)-N-(3-thienyl)-4,5,6,7-tetrahydropyrazolo[1,5-a]pyridine-5-carboxamide] | 590 nM
N#Cc1cc(NC(=O)C2CCn3ncc(-c4ccc(F)cc4F)c3C2)ccc1F (centres unmarked) [Example 13, N-(3-cyano-4-fluoro-phenyl)-3-(2,4-difluorophenyl)-4,5,6,7-tetrahydropyrazolo[1,5-a]pyridine-5-carboxamide] | 210 nM
Cc1nc(C2CC(=O)N(c3cnn4c3CC(C(=O)Nc3cc(F)c(F)c(F)c3)CC4)C2)no1 (centres unmarked) [Example 18, 3-[4-(5-methyl-1,2,4-oxadiazol-3-yl)-2-oxo-pyrrolidin-1-yl]-N-(3,4,5-trifluorophenyl)-4,5,6,7-tetrahydropyrazolo[1,5-a]pyridine-5-carboxamide] | 390 nM
O=C(Nc1cc(F)c(F)c(F)c1)C1CCn2ncc(N3CCN(Cc4ccccc4)S3(=O)=O)c2C1 (centres unmarked) [Example 6, 3-(5-benzyl-1,1-dioxo-1,2,5-thiadiazolidin-2-yl)-N-(3,4,5-trifluorophenyl)-4,5,6,7-tetrahydropyrazolo[1,5-a]pyridine-5-carboxamide] | 240 nM
O=C(Nc1cc(F)c(F)c(F)c1)C1CCn2ncc(-c3ccc(F)cc3F)c2C1 (centres unmarked) [Example 3, 3-(2,4-difluorophenyl)-N-(3,4,5-trifluorophenyl)-4,5,6,7-tetrahydropyrazolo[1,5-a]pyridine-5-carboxamide] | 160 nM
Cc1noc(C2CC(=O)N(c3cnn4c3CC(C(=O)Nc3cc(F)c(F)c(F)c3)CC4)C2)n1 (centres unmarked) [Example 10, 3-[4-(3-methyl-1,2,4-oxadiazol-5-yl)-2-oxo-pyrrolidin-1-yl]-N-(3,4,5-trifluorophenyl)-4,5,6,7-tetrahydropyrazolo[1,5-a]pyridine-5-carboxamide] | 330 nM
O=C(Nc1ccnc(F)c1)C1CCn2ncc(-c3ccc(F)cc3F)c2C1 (centres unmarked) [Example 16, 3-(2,4-difluorophenyl)-N-(2-fluoro-4-pyridyl)-4,5,6,7-tetrahydropyrazolo[1,5-a]pyridine-5-carboxamide] | 350 nM
O=C(Nc1cc(F)nc(F)c1)C1CCn2ncc(-c3ccc(F)cc3F)c2C1 (centres unmarked) [Example 15, 3-(2,4-difluorophenyl)-N-(2,6-difluoro-4-pyridyl)-4,5,6,7-tetrahydropyrazolo[1,5-a]pyridine-5-carboxamide] | 450 nM
O=C(Nc1cc(F)c(F)c(F)c1)C1CCn2ncc(C3CCCC3)c2C1 (centres unmarked) [Example 4, 3-cyclopentyl-N-(3,4,5-trifluorophenyl)-4,5,6,7-tetrahydropyrazolo[1,5-a]pyridine-5-carboxamide] | 150 nM
O=C(Nc1cc(F)c(F)c(F)c1)C1CCn2ncc(N3CCCS3(=O)=O)c2C1 (centres unmarked) [Example 5, 3-(1,1-dioxo-1,2-thiazolidin-2-yl)-N-(3,4,5-trifluorophenyl)-4,5,6,7-tetrahydropyrazolo[1,5-a]pyridine-5-carboxamide] | 39 nM
